The values below come from patent US5194437A, “1,4-disubstituted piperazines” (Adir et Compagnie, priority 1990, dated 1993).

The target in one assay is T1, 5-HT1A receptors (Rattus norvegicus, UniProt P19327).
T1 sequence (P19327 1-422): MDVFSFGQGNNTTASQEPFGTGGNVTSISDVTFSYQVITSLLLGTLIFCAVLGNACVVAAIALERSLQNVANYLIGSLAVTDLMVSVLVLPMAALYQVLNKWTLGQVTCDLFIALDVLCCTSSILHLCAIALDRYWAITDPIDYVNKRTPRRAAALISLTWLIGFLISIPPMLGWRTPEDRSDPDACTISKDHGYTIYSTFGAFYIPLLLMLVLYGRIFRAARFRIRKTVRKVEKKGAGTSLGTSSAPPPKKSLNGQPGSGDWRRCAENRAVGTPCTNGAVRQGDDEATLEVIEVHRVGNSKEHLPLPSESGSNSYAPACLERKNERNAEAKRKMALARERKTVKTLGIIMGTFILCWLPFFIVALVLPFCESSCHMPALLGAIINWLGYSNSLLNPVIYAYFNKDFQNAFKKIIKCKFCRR
In words: Body temperature (hypothermia), agonist and antagonist activity. To be noted: agonist: induction of hypothermia; s.c.; minimum effective dose. Also noted: from tissue; host or cells: whole animal, male Wistar rat (in vivo). Format: in vivo, male Wistar rats. How it is done: (§1) The tests were carried out on male Wistar rats weighing from 200 to 220 g which had free access to food and drinking water, in standard cages.
(§2) The animals are housed individually for the hypothermia, corticosterone secretion and flat body posture tests, and in groups of three for the tail flick test.
(§3) The laboratory temperature is kept at 21°±1° C., with 60 ±5% humidity. The rats are subjected to a light/dark cycle of 12 hours/12 hours (the light cycle commencing at 7.30 a.m.).
(§4) a/ General procedure for tests of agonist and antagonist activities on 5-HT1A receptors.
(§5) The test compounds were administered subcutaneously (s.c.) 60 minutes before the start of the test, that is to say 30 minutes before the vehicle (agonist responses) or 8-OH-DPAT (antagonist responses).
(§6) In all the tests, the solvent is used in parallel as the control. The animals were allowed to rest in their cages during the time between the injections and evaluation.
(§7) For the agonist studies, the solvent was administered at a dose of 1 ml/kg s.c. 30 minutes before the start of the test. For the antagonist studies, doses of 8-OH-DPAT inducing sub-maximal responses were chosen, i.e. doses of 0.63, 0.16, 0.16 and 0.16 mg/kg s.c. for the tail flick test, the flat body posture test, the corticosterone secretion test and the hypothermia test, respectively.
The rats are immobilised and a lubricated digital thermometer (Thermistoprobe from Testotherm, Basle, Switzerland) is inserted into the rectum to a depth of 5 cm. 30 seconds after insertion, the temperature is read off a digital scale. The percentage inhibition is calculated with the aid of the formula mentioned above.
(§8) In general, after variance analysis, the results are subjected to Dunnett's test. Results are regarded as significant if p<0.05.
(§9) The doses of the test compounds are all expressed in terms of the base. Unless otherwise mentioned, all the compounds were dissolved in sterile water (to which a few drops of lactic acid are added, if necessary) and administered at a volume of 1 ml/kg s.c..
On to `O=C1CC2(CCCC2)CC(=O)N1CCCCN1CCN(c2ncccn2)CC1` [buspirone, reference compound], for which the “Hypothermia M.E.D.” value was 2.5 mg/kg.

Take `c1ccc2c(c1)CC(N1CCN(c3cccc4c3OCCO4)CC1)C2` [Example 7, 4-(benzodioxan-5-yl)-1-(indan-2-yl)-piperazine]: the “Hypothermia M.E.D.” value worked out at 20.0 mg/kg.

Staying with this assay, now noted: rat, sc, 1 h; antagonist: inhibition of hypothermia induced by 8-OH-DPAT 0.16 mg/kg s.c.; compound s.c. 60 min before test; read-out: Hypothermia ID50 (95% C.L.).
With `c1ccc2c(c1)CC(N1CCN(c3cccc4c3OCCO4)CC1)C2` [Example 7, 4-(benzodioxan-5-yl)-1-(indan-2-yl)-piperazine], the ED50 was determined as 1.6 mg/kg.

The next assay deals with T1, 5-HT1A receptors. In words: Spontaneous tail flick test (STF), agonist and antagonist activity. Also noted: from tissue; host or cells: whole animal, male Wistar rat (in vivo). To be noted: agonist: induction of STF; s.c.; minimum effective dose. Type of assay: in vivo, male Wistar rats. The method, then:
as §1, §2, §3, §4, §5, §6, §7
Tail flicks were determined in animals restrained in horizontal, opaque plastics cylinders, the animals' tails hanging freely over the edge of the laboratory bench. After a 5-minute adaptation period, the number of movements made in 5 minutes is recorded. One STF is defined as the raising of the tail to a level higher than the level of the body axis [Millan M. J. et al., J. Pharmacol. Exp. Ther., 256, 973-982 (1990)].
as §8, §9
On the technique in general: Thermal pain tests record how soon the animal reacts.
As to `O=C1CC2(CCCC2)CC(=O)N1CCCCN1CCN(c2ncccn2)CC1` [buspirone, reference compound], the “Spontaneous tail flicks M.E.D.” value is above 10.0 mg/kg.

With `c1ccc2c(c1)CC(N1CCN(c3cccc4c3OCCO4)CC1)C2` [Example 7, 4-(benzodioxan-5-yl)-1-(indan-2-yl)-piperazine], the “Spontaneous tail flicks M.E.D.” value is given as above 10.0 mg/kg.

The same assay, now with this note: rat, sc, 1 h; antagonist: inhibition of STF induced by 8-OH-DPAT 0.63 mg/kg s.c.; compound s.c. 60 min before test; read-out: Spontaneous tail flicks ID50 (95% C.L.).
For the compound `O=C1CC2(CCCC2)CC(=O)N1CCCCN1CCN(c2ncccn2)CC1` [buspirone, reference compound], the ED50 is 3.71 mg/kg.

With `c1ccc2c(c1)CC(N1CCN(c3cccc4c3OCCO4)CC1)C2` [Example 7, 4-(benzodioxan-5-yl)-1-(indan-2-yl)-piperazine], the ED50 stood at 0.74 mg/kg.

The target in another assay is T1, 5-HT1A receptors. As to the kind of experiment: Flat body posture (FBP), agonist response and antagonism of 8-OH-DPAT. Details: from tissue; host or cells: whole animal, male Wistar rat (in vivo). Format: in vivo, male Wistar rats. To be noted: sc, 1 h, read-out: Flat body posture ED50 (95% C.L.), antagonism of 8-OH-DPAT, inhibition of FBP, 8-OH-DPAT 0.16 mg/kg s.c., compound s.c. 60 min before test. How it is done: as §1, §2, §3, §4, §5, §6, §7
(§10) The same animals were employed for the evaluation of the effect of the test compounds on the FBP and for the determination of the plasma levels of CS. All the tests were carried out in the morning between 10.30 and 12.30, i.e. when the cicardian levels of CS are at their lowest.
25 minutes after the treatment (i.e. 5 minutes before decapitation), the animals are observed in their cages and the presence or absence of FBP is noted.
(§11) The presence of FBP is defined by a characteristic posture of the animal. The animal is then in a position of ventral decubitus with the hind limbs clearly in extension. 5 minutes after observation of FBP, the animals are decapitated and the trunk blood is collected in chilled tubes containing 50 μl of a 10% EDTA solution. After centrifugation at 4000 rpm, the plasma is removed and stored at -30° C. until assay.
as §8
For the dose-response for induction and inhibition of FBP, the effective doses 50 (ED50) (doses at which 50% of the animals show a response) were calculated by the method of Litchfield and Wilcoxon.
as §9
As to `O=C1CC2(CCCC2)CC(=O)N1CCCCN1CCN(c2ncccn2)CC1` [buspirone, reference compound], the ED50 is above 10 mg/kg.

In the case of `c1ccc2c(c1)CC(N1CCN(c3cccc4c3OCCO4)CC1)C2` [Example 7, 4-(benzodioxan-5-yl)-1-(indan-2-yl)-piperazine], the ED50 is 0.52 mg/kg.

The same assay, now with this note: sc, induction of FBP, s.c., dose at which 50% of the animals show a response, read-out: Flat body posture ED50 (95% C.L.), agonist response.
Regarding `O=C1CC2(CCCC2)CC(=O)N1CCCCN1CCN(c2ncccn2)CC1` [buspirone, reference compound], the ED50 was found to be 7.4 mg/kg.

Regarding `c1ccc2c(c1)CC(N1CCN(c3cccc4c3OCCO4)CC1)C2` [Example 7, 4-(benzodioxan-5-yl)-1-(indan-2-yl)-piperazine], the ED50 is above 10 mg/kg.

For the next assay, the target named is T1, 5-HT1A receptors. In words: In vitro binding test, 5-HT1A receptors, [3]H-8-OH-DPAT, rat hippocampus membranes. The settings on record: hot ligand [3]H-8-OH-DPAT 0.4 nM; rat hippocampus membranes; 25° C., 30 minutes. Also noted: Hippocampus from the brains of decapitated rats; from tissue; host or cells: rat hippocampus membranes (male Wistar); species or system rat (male Wistar).
Procedure: Hippocampus from the brains of decapitated rats was immediately frozen on dry ice and then stored at -80° C. until preparation of membranes. The tissue was homogenised at 4° C. in the appropriate buffer using a Polytron (Brinkman Instruments - Lucerne - Switzerland) and centrifuged at 20,000 rpm.
Incubation was carried out at 25° C. for 30 minutes. Non-specific binding was defined by 10 μM of 5-HT. The tests were terminated by rapid filtration by means of a Brandel harvester over glass-fibre filters pretreated with 0.1% polyethyleneimine.
The inhibitory concentration 50 values (IC50) were determined according to method 8 of Tallarida R. J. and Murray R. B., Manual of pharmacological calculations with computer programs, Springer Verlag, N.Y. (1987).
The pKi was calculated according to the formula [formula] where [L] is the concentration of the hot ligand ([3]H-8-OH-DPAT, 0.4 nM) and Kd is the apparent dissociation constant determined from saturation experiments.
The test substances were dissolved in the incubation buffer.
For the compound `c1ccc2c(c1)CC(N1CCN(c3cccc4c3OCCO4)CC1)C2` [Example 7, 4-(benzodioxan-5-yl)-1-(indan-2-yl)-piperazine], the “Affinity (pKi)” value was found to be 8.75.

The target in another assay is T1, 5-HT1A receptors. As to the kind of experiment: Corticosterone secretion (CS), plasma, agonist and antagonist activity. Type of assay: in vivo, male Wistar rats. Also noted: from tissue; host or cells: whole animal, male Wistar rat (in vivo). The settings on record: agonist: induction of CS; s.c.; minimum effective dose. The method, then: as §1, §2, §3, §4, §5, §6, §7, §10, §11
CS was determined using a radio-competitive assay for a CS-binding protein in plasma: transcortin. The latter is obtained from monkey serum. Separation of the CS-transcortin complexes from free CS was effected by means of a solution of dextran and active charcoal. The detection limit was 50 pg/tube. Intra- and inter-assay variations were 5 and 15%, respectively [cf. Rivet J. M. et al., Eur. J. Pharmacol., 183, 634-635 (1990)].
Since the base levels of CS in plasma are never zero, the following formula was used to calculate the percentage inhibition of plasmatic CS induced by 8-OH-DPAT: [formula]
as §8, §9
In the case of `O=C1CC2(CCCC2)CC(=O)N1CCCCN1CCN(c2ncccn2)CC1` [buspirone, reference compound], the “Corticosterone secretion M.E.D.” value is listed as above 2.5 mg/kg.

For `c1ccc2c(c1)CC(N1CCN(c3cccc4c3OCCO4)CC1)C2` [Example 7, 4-(benzodioxan-5-yl)-1-(indan-2-yl)-piperazine], the “Corticosterone secretion M.E.D.” value is above 10.0 mg/kg.

The same assay, now with this note: rat, sc, 1 h; antagonist: inhibition of CS induced by 8-OH-DPAT 0.16 mg/kg s.c.; compound s.c. 60 min before test; read-out: Corticosterone secretion ID50 (95% C.L.).
As to `O=C1CC2(CCCC2)CC(=O)N1CCCCN1CCN(c2ncccn2)CC1` [buspirone, reference compound], the ED50 is above 10 mg/kg.

Turning to `c1ccc2c(c1)CC(N1CCN(c3cccc4c3OCCO4)CC1)C2` [Example 7, 4-(benzodioxan-5-yl)-1-(indan-2-yl)-piperazine], the ED50 is 2.5 mg/kg.

The next assay has as its target T1, 5-HT1A receptors. As to the kind of experiment: Overall agonist/antagonist behaviour at 5-HT1A receptors (in vivo tests). Details: from tissue; host or cells: whole animal, male Wistar rat (in vivo); species or system male Wistar rats. The settings on record: conclusion from Tables 1 and 2. The method, then: as §4, §5, §6, §7
Regarding `O=C1CC2(CCCC2)CC(=O)N1CCCCN1CCN(c2ncccn2)CC1` [buspirone, reference compound], the “Behaviour towards 5-HT1A receptors” value is “agonist behaviour”.
